Measurements taken from patent US20250049776A1, “AUTOPHAGY INDUCING COMPOUNDS AND USES THEREOF, IN PARTICULAR FOR A SYSTEMIC TREATMENT OF DISEASES AND CONDITIONS” (Samsara Therapeutics Inc., priority 2021, published 2025).
Where a name gives a salt, the structure may show the parent alone.

Tested on: Human osteosarcoma U20S cells
Assay: Assay to measure lysosome and autolysosome formation (acidic vesicle formation, LysoView/LysoTracker staining)
Type: cell-based
Conditions: for activation at 0.8 µM: Homo sapiens, U2OS cells, concentration of 0.8 μM, read-out: Activity (percentage increase in acidic vesicle formation over the DMSO-treated control), Table 2
Procedure: Lysosomes play a fundamental role in the autophagic pathway by fusing with autophagosomes and creating ‘autolysosomes’ in order to digest their contents. Stimulation of lysosome and autolysosome formation by a compound is indicative of a stimulation of autophagy. The ability of compounds to stimulate lysosome and autolysosome formation, and thus autophagy, in live cells was assessed via fluorescent microscopy using various fluorescent stains for labelling and tracking acidic organelles (including lysosomes and autolysosomes) such as: LysoView™ 650 (70059 and 70059-T, Biotium), LysoViewTM633 (70058 and 70058-T, Biotium) and LysoTracker™ Deep Red (L12492, ThermoFisher Scientific). The cellular phenotype was quantitatively assessed for the induction of acidic vesicle formation and compared to a non-treated control, thus providing a measure of the ability of the compound under investigation to stimulate autophagy.
Representative procedure using LysoView™633 dye or LysoTracker™ Deep Red dye: Human osteosarcoma U20S cells (40,000 cells/well) were seeded in a 24 well glass bottom plate (Sensoplate, Greiner Bio-One) and were incubated overnight in a humidified atmosphere at 37° C. and 5% CO2. Cells were grown in DMEM (Gibco) supplemented with 10% Fetal Bovine Serum (FBS) and 100 units/ml penicillin and 100 μg/ml streptomycin (Invitrogen). After the attachment period, cells were treated with different compounds of interest (at various concentrations in DMSO) or DMSO (non-treated control) in cell culture medium and were incubated for 24 hours. Compound-containing medium was removed and cells were incubated with pre-warmed cell culture medium containing 1× LysoView™ 633 (70058 and 70058-T, Biotium) or 50 nM LysoTracker™ Deep Red (L12492, ThermoFisher Scientific) for 45 minutes at 37° C. Finally, cell nuclei were stained for 10 minutes using Hoechst 33342 (1 μg/mL) and then the medium was replaced with fresh medium. The 24 well plate was then fitted into a heated stage on the microscope and cells maintained at 37° C. Images were captured using appropriate filter set for Cy5 and DAPI detection with the EVOS M7000 Microscope (ThermoFisher Scientific). The cellular phenotype was visually assessed for the induction of acidic vesicle formation relative to the non-treated control; multiple images were acquired and analyzed using ImageJ or Cell Profiler.

Row | SMILES | activation at 0.8 µM [%] | increase in acidic vesicle formation (U20S cells, relative to DMSO-treated control (10 μM))
1 | CCCN(C(=O)c1csc(-c2cnn(-c3cccc(C(F)(F)F)c3)c2)n1)[C@@H]1CCNC1 [Compound 49, N-propyl-N-[(3R)-pyrrolidin-3-yl]-2-{1-[3-(trifluoromethyl)phenyl]-1H-pyrazol-4-yl}-1,3-thiazole-4-carboxamide] | 30 to 50 | –
2 | CCCN(C(=O)c1csc(-c2cnn(-c3cccc(F)c3)c2)n1)[C@@H]1CCNC1 [Compound 53, 2-[1-(3-fluorophenyl)-1H-pyrazol-4-yl]-N-propyl-N-[(3R)-pyrrolidin-3-yl]-1,3-thiazole-4-carboxamide] | 10 to 30 | –
3 | CC(C)N(C(=O)c1ccc(-c2cnn(-c3ccccc3)c2)[nH]1)C1CCNCC1 [Compound 5, 5-(1-phenyl-1H-pyrazol-4-yl)-N-(piperidin-4-yl)-N-(propan-2-yl)-1H-pyrrole-2-carboxamide] | 30 to 50 | –
4 | CCCN(C(=O)c1csc(-c2cnn(-c3ccc(Cl)cc3)c2)n1)[C@@H]1CCNC1 [Compound 41, 2-[1-(4-chlorophenyl)-1H-pyrazol-4-yl]-N-propyl-N-[(3R)-pyrrolidin-3-yl]-1,3-thiazole-4-carboxamide] | 10 to 30 | –
5 | O=C(NC1CNC1)c1csc(-c2cnn(-c3ccccc3)c2)n1 [Compound 180, N-(azetidin-3-yl)-2-(1-phenyl-1H-pyrazol-4-yl)-1,3-thiazole-4-carboxamide] | 30 to 50 | –
6 | O=C(NCC1CCNC1)c1csc(-c2cnn(-c3ccccc3)c2)n1 (stereo not drawn) [Compound 179, 2-(1-phenyl-1H-pyrazol-4-yl)-N-[(pyrrolidin-3-yl)methyl]-1,3-thiazole-4-carboxamide] | 30 to 50 | –
7 | CC(C)N(C(=O)c1csc(-c2cnn(-c3ccccc3)c2)n1)[C@@H]1CCNC1 [Compound 312, 2-(1-phenyl-1H-pyrazol-4-yl)-N-(propan-2-yl)-N-[(3R)-pyrrolidin-3-yl]-1,3-thiazole-4-carboxamide] | 50 to 100 | –
8 | CCCN(C(=O)c1csc(-c2cnc(-c3ccccc3)o2)n1)[C@H]1CCNC1 [Compound 35, 2-(2-phenyl-1,3-oxazol-5-yl)-N-propyl-N-[(3S)-pyrrolidin-3-yl]-1,3-thiazole-4-carboxamide] | 10 to 30 | –
9 | CCCN(C(=O)c1csc(-c2cnn(-c3ccccc3F)c2)n1)[C@@H]1CCNC1 [Compound 97, 2-[1-(2-fluorophenyl)-1H-pyrazol-4-yl]-N-propyl-N-[(3R)-pyrrolidin-3-yl]-1,3-thiazole-4-carboxamide] | 30 to 50 | –
10 | CC(C)N(C(=O)c1cc(-c2cnn(-c3ccccc3)c2)c[nH]1)[C@@H]1CCNC1 [Compound 334, 4-(1-phenyl-1H-pyrazol-4-yl)-N-(propan-2-yl)-N-[(3R)-pyrrolidin-3-yl]-1H-pyrrole-2-carboxamide] | 30 to 50 | only a slight increase
11 | CC(C)N(C(=O)c1csc(-c2cnn(-c3ccccc3)c2)n1)[C@H]1[C@@H]2CNC[C@@H]21 [Compound 318, N-[(1R,5S,6S)-3-azabicyclo[3.1.0]hexan-6-yl]-2-(1-phenyl-1H-pyrazol-4-yl)-N-(propan-2-yl)-1,3-thiazole-4-carboxamide] | > 100 | –
12 | CCCN(C(=O)c1csc(-c2cnn(-c3ccccc3)c2)n1)[C@H]1CCNC1 [Compound 170, (S)-2-(1-phenyl-1H-pyrazol-4-yl)-N-propyl-N-(pyrrolidin-3-yl)thiazole-4-carboxamide hydrochloride] | 10 to 30 | –
13 | CCCN(C(=O)c1csc(-c2cnn(-c3ccncc3)c2)n1)[C@@H]1CCNC1 [Compound 23, N-propyl-2-[1-(pyridin-4-yl)-1H-pyrazol-4-yl]-N-[(3R)-pyrrolidin-3-yl]-1,3-thiazole-4-carboxamide] | 10 to 30 | –
14 | O=C(NCC1CCNCC1)c1ccc(-c2cnn(-c3ccccc3)c2)o1 [Compound 100, 5-(1-phenyl-1H-pyrazol-4-yl)-N-[(piperidin-4-yl)methyl]furan-2-carboxamide] | 30 to 50 | –
